Experiments:
Assay in all cases: KINOMEscan
Type in all cases: binding
Settings in all cases: 1 uM
CAMKK2 = CAMKK2 (Homo sapiens (Human), UniProt Q96RR4)
NEK4 = NEK4 (Homo sapiens (Human), UniProt P51957)
CDKL5 = CDKL5 (Homo sapiens (Human), UniProt O76039)
HASPIN = HASPIN (Homo sapiens (Human), UniProt Q8TF76)
KIT (V559D, V654A) = KIT (V559D, V654A) (Homo sapiens (Human), UniProt P10721, V559D/V654A)
AXL = AXL (Homo sapiens (Human), UniProt P30530)
CAMK2D = CAMK2D (Homo sapiens (Human), UniProt Q13557)
CAMK2D, sequence (Q13557 whole entry): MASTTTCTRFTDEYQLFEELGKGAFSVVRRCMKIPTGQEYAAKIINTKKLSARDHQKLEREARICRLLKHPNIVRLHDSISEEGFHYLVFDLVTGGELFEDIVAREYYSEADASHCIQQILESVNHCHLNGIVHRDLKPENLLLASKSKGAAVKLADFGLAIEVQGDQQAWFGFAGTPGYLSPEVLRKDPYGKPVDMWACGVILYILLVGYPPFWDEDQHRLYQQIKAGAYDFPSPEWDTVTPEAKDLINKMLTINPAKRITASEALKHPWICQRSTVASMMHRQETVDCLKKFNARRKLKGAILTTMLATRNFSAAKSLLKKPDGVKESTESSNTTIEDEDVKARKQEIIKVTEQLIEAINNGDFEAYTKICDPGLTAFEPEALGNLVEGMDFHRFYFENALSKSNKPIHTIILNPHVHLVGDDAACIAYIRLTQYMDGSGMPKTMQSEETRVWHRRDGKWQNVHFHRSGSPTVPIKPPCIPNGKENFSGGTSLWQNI

BMPR1A = BMPR1A (Homo sapiens (Human), UniProt P36894)
CDK11 = CDK11 (Homo sapiens (Human), UniProt Q9BWU1)
DCAMKL3 = DCAMKL3 (Homo sapiens (Human), UniProt Q9C098)
DCAMKL3, sequence (Q9C098 whole entry, looked up): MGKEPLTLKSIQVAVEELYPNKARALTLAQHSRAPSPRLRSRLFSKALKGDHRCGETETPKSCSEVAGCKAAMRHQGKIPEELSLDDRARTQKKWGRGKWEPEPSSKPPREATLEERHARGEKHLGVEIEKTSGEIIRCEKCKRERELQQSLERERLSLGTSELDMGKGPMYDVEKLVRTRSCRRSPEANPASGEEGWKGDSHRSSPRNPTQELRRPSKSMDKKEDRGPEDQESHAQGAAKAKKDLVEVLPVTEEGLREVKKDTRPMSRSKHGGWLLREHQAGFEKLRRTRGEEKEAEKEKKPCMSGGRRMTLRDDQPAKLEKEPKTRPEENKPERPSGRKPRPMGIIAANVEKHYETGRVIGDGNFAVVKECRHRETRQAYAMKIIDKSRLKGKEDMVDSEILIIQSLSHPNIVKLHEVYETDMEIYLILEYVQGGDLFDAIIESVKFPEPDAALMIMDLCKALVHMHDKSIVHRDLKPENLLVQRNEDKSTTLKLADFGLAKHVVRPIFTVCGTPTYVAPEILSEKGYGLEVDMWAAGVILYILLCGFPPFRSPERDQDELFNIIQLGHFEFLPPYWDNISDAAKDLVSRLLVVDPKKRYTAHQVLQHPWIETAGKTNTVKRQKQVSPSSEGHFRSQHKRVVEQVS

RIPK1 = RIPK1 (Homo sapiens (Human), UniProt Q13546)
PCTK2 = PCTK2 (Homo sapiens (Human), UniProt Q00537)
RIPK4 = RIPK4 (Homo sapiens (Human), UniProt P57078)
RIPK4, sequence (P57078 whole entry): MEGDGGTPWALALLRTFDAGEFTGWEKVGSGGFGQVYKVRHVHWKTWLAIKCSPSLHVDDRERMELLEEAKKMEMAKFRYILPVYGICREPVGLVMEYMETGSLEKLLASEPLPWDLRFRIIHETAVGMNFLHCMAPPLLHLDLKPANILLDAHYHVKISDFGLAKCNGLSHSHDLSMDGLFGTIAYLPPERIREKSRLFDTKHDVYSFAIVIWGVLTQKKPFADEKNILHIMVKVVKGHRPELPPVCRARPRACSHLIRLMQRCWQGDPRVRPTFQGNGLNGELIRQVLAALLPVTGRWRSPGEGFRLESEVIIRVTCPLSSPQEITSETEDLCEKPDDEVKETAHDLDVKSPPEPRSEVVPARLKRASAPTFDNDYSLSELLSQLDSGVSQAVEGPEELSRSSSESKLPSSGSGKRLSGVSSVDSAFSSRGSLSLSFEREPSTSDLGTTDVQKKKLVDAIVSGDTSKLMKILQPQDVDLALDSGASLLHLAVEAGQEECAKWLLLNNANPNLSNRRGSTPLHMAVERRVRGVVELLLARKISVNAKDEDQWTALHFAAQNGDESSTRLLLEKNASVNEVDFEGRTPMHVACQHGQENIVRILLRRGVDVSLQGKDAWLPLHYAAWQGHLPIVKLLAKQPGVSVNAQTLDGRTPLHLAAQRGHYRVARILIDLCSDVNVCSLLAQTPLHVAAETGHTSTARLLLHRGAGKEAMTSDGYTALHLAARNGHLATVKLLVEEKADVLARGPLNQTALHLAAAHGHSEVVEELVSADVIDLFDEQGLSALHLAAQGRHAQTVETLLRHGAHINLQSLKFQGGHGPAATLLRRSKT

DMPK = DMPK (Homo sapiens (Human), UniProt Q09013)
SRPK1 = SRPK1 (Homo sapiens (Human), UniProt Q96SB4)
EGFR (G719S) = EGFR (G719S) (Homo sapiens (Human), UniProt P00533, G719S)
DAPK2 = DAPK2 (Homo sapiens (Human), UniProt Q9UIK4)
CAMK1G = CAMK1G (Homo sapiens (Human), UniProt Q96NX5)
SIK = SIK (Homo sapiens (Human), UniProt P57059)
BMPR1B = BMPR1B (Homo sapiens (Human), UniProt O00238)
CDK5 = CDK5 (Homo sapiens (Human), UniProt Q00535)
CSNK1A1 = CSNK1A1 (Homo sapiens (Human), UniProt P48729)
BRK = BRK (Homo sapiens (Human), UniProt Q13882)
MAP3K2 = MAP3K2 (Homo sapiens (Human), UniProt Q9Y2U5)
MAP3K2, sequence (Q9Y2U5 whole entry): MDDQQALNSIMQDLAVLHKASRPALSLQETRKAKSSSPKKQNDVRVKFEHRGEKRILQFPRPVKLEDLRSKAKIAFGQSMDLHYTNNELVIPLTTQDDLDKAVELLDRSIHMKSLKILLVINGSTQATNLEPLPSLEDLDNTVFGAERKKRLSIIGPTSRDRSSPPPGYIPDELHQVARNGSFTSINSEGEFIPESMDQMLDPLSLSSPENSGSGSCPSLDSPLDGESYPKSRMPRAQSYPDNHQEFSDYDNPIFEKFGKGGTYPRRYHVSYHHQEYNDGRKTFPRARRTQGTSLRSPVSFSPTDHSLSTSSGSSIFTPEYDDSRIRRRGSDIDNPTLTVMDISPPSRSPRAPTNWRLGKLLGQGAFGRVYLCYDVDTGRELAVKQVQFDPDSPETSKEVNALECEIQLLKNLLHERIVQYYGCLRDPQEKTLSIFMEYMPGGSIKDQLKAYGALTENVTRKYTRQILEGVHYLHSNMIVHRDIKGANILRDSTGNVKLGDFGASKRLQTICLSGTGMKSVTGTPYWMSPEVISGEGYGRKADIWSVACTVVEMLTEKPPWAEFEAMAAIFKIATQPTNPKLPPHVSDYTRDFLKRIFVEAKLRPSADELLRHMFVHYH

FLT3 (K663Q) = FLT3 (K663Q) (Homo sapiens (Human), UniProt P36888, K663Q)
PKN1 = PKN1 (Homo sapiens (Human), UniProt Q16512)
PKN1, sequence (Q16512 whole entry): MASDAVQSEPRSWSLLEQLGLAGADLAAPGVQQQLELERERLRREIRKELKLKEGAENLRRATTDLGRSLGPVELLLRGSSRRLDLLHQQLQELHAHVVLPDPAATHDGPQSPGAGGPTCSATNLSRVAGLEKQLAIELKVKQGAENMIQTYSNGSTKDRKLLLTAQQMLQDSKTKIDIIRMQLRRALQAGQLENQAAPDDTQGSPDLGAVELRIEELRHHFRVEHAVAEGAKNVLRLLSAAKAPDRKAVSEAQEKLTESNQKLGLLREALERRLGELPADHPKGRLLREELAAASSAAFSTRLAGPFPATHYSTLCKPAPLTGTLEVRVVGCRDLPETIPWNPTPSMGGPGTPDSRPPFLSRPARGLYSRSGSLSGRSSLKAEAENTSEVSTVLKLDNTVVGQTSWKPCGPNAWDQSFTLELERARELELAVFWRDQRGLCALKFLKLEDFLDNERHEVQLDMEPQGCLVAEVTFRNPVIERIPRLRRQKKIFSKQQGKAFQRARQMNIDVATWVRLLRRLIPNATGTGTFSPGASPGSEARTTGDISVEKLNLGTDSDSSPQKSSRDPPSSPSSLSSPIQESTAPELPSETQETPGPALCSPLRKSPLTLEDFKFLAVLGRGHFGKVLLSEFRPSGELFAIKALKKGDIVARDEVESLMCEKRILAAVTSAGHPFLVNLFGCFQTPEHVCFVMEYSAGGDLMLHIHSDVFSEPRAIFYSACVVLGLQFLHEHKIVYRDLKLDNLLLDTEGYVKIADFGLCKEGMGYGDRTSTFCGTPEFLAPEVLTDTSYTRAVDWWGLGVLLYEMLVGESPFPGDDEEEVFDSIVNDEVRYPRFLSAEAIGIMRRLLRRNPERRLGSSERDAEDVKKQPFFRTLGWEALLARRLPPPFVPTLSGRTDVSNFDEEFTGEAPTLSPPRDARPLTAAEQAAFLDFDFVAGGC

GRK4 = GRK4 (Homo sapiens (Human), UniProt P32298)
KIT (A829P) = KIT (A829P) (Homo sapiens (Human), UniProt P10721, A829P)
DCAMKL1 = DCAMKL1 (Homo sapiens (Human), UniProt O15075)
ULK2 = ULK2 (Homo sapiens (Human), UniProt Q8IYT8)
ULK2, sequence (Q8IYT8 whole entry): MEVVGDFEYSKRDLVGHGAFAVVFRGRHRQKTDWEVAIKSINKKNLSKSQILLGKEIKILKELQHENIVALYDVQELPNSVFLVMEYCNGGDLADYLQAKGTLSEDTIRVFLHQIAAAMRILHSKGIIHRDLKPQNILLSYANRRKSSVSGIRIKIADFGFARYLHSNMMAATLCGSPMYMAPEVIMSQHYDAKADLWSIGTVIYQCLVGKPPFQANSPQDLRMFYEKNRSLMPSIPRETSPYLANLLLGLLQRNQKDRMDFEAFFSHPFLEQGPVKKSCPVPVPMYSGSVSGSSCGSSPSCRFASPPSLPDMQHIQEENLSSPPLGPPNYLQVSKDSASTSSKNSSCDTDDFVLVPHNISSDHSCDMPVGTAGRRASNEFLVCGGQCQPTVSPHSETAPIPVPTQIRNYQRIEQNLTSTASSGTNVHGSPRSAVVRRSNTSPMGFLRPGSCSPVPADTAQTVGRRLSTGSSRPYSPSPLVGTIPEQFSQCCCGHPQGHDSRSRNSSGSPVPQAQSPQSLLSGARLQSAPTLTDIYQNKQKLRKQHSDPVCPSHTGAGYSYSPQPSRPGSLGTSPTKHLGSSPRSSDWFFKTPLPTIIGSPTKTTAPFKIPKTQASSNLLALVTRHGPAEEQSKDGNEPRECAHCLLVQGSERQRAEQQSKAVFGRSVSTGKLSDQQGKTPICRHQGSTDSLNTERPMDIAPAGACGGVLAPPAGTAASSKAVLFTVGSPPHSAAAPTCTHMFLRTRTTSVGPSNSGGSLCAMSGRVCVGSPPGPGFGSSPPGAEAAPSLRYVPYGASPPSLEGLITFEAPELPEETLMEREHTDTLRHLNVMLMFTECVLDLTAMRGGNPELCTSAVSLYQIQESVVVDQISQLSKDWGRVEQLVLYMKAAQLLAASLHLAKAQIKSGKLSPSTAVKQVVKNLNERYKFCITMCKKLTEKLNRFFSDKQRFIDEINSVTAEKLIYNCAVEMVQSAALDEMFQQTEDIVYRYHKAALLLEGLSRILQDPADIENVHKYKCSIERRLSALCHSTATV

[1] = target: ABL1 (H396P)-nonphosphorylated (Homo sapiens (Human), UniProt P00519, H396P)
INSRR = INSRR (Homo sapiens (Human), UniProt P14616)
EGFR (S752-I759del) = EGFR (S752-I759del) (Homo sapiens (Human), UniProt P00533, DEL752-759)
PLK4 = PLK4 (Homo sapiens (Human), UniProt O00444)
[2] = target: RSK2 (Kin.Dom.2-C-terminal) (Homo sapiens (Human), UniProt P51812)
TAOK2 = TAOK2 (Homo sapiens (Human), UniProt Q9UL54)
BMX = BMX (Homo sapiens (Human), UniProt P51813)
ACVR1 = ACVR1 (Homo sapiens (Human), UniProt Q04771)
GSK3B = GSK3B (Homo sapiens (Human), UniProt P49841)
GSK3B, sequence (P49841 whole entry): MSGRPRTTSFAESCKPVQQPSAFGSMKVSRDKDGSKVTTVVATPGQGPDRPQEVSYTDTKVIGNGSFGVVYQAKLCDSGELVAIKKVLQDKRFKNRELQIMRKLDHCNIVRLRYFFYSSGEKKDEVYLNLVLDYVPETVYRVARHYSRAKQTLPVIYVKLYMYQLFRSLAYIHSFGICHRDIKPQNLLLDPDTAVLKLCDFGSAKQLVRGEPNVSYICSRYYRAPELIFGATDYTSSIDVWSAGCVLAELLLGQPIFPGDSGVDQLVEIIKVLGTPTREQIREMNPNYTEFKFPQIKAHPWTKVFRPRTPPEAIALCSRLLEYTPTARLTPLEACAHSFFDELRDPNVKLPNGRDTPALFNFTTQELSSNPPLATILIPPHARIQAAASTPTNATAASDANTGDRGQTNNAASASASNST

FGFR3 (G697C) = FGFR3 (G697C) (Homo sapiens (Human), UniProt P22607, G697C)

## COc1ccc(N2C(=O)N(c3c(C)cccc3C)Cc3cnc(Nc4ccc(N5CCN(C)CC5)cc4)nc32)c(OC)c1 [HG-11-136-01]
CAMKK2
  KINOMEscan CAMKK2: 100
NEK4
  KINOMEscan NEK4: 100
CDKL5
  KINOMEscan CDKL5: 98
HASPIN
  KINOMEscan HASPIN: 92
KIT (V559D, V654A)
  KINOMEscan KIT (V559D, V654A): 2.2
AXL
  KINOMEscan AXL: 25
CAMK2D
  KINOMEscan CAMK2D: 100
BMPR1A
  KINOMEscan BMPR1A: 4.6
CDK11
  KINOMEscan CDK11: 89
DCAMKL3
  KINOMEscan DCAMKL3: 77
RIPK1
  KINOMEscan RIPK1: 35
PCTK2
  KINOMEscan PCTK2: 91
RIPK4
  KINOMEscan RIPK4: 55
DMPK
  KINOMEscan DMPK: 88
SRPK1
  KINOMEscan SRPK1: 16
EGFR (G719S)
  KINOMEscan EGFR (G719S): 0.2
DAPK2
  KINOMEscan DAPK2: 88
CAMK1G
  KINOMEscan CAMK1G: 95
SIK
  KINOMEscan SIK: 0.9
BMPR1B
  KINOMEscan BMPR1B: 0
CDK5
  KINOMEscan CDK5: 100
CSNK1A1
  KINOMEscan CSNK1A1: 100
BRK
  KINOMEscan BRK: 0.45
MAP3K2
  KINOMEscan MAP3K2: 0.05
FLT3 (K663Q)
  KINOMEscan FLT3 (K663Q): 31
PKN1
  KINOMEscan PKN1: 95
GRK4
  KINOMEscan GRK4: 26
KIT (A829P)
  KINOMEscan KIT (A829P): 3.6
DCAMKL1
  KINOMEscan DCAMKL1: 51
ULK2
  KINOMEscan ULK2: 2.2
[1]
  KINOMEscan ABL1 (H396P)-nonphosphorylated: 0
INSRR
  KINOMEscan INSRR: 100
EGFR (S752-I759del)
  KINOMEscan EGFR (S752-I759del): 4.2
PLK4
  KINOMEscan PLK4: 18
[2]
  KINOMEscan RSK2 (Kin.Dom.2-C-terminal): 51
TAOK2
  KINOMEscan TAOK2: 0
BMX
  KINOMEscan BMX: 3
ACVR1
  KINOMEscan ACVR1: 2.8
GSK3B
  KINOMEscan GSK3B: 100
FGFR3 (G697C)
  KINOMEscan FGFR3 (G697C): 1.4
